Each structure is given as a SMILES string.

Assay [1] deals with TGF-β-stimulated SMAD3 phosphorylation in BEAS-2B cells. The assay can be described thus: Cellular ALK5 potency assay, inhibition of TGF-β stimulated pSMAD3 formation in BEAS-2B cells. The format is cell-based. To be noted: Homo sapiens; inhibition of TGF-β stimulated pSMAD3 formation, BEAS-2B cells; read-out: BEAS2B pIC50 (converted). The gist of the method: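 SMAD3 phosphorylation was measured by AlphaLISA after 30 min TGF-β stimulation (10 ng/mL final) of BEAS-2B cells preincubated 1 h with compound at 37 °C. Results given as pIC50.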

The target in assay [2] is T1, recombinant human ALK5 (TGF-βR1) protein (Homo sapiens, UniProt P36897).
T1 construct: purchased Life Technologies PR9075A
T1 sequence (P36897 34-503): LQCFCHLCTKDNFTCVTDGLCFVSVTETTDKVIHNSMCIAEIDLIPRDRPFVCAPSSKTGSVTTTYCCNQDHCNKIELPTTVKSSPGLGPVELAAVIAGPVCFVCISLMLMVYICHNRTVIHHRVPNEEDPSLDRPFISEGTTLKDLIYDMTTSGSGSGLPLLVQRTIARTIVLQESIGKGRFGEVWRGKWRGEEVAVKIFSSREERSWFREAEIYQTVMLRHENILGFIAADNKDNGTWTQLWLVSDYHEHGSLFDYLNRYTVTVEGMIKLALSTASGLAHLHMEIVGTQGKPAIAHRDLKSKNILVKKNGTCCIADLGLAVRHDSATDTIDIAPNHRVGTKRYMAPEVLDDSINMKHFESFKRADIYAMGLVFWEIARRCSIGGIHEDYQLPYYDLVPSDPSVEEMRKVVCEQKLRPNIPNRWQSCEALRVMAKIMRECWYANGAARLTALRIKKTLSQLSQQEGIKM
Description: Biochemical ALK5 (TGF-βR1) assay to measure pKi (LANCE Ultra ULight kinase assay). The following applies: apparent pKi from pIC50 by Cheng-Prusoff, read-out: ALK5 pKi (converted). The gist of the method:
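Dose range 10 μM–25 pM; enzyme + compound 60 min RT; ATP added (5× stock 125 μM, 2 mM DTT); 60 min 37 °C; stop with EDTA + Eu anti-phospho-Topo IIα Thr1342 Ab; TR-FRET ex 320/340, em 665 nm. 4-param pIC50 → pKi (Cheng-Prusoff).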
On the technique in general: TR-FRET usually uses a lanthanide donor and a delayed reading to cut background.

For `Cc1cccc(-c2[nH]cnc2-c2ccc3ncc(C4=CC(N)CCC4)cc3c2)n1` (centres unmarked) [Compound 138, 3-[6-[5-(6-methyl-2-pyridyl)-1H-imidazol-4-yl]-3-quinolyl]cyclohex-2-en-1-amine], the IC50 in assay [1] was 25.1 to 158 nM. For the same compound, the Ki in assay [2] was 0.0398 to 0.316 nM.
Turning to `Cc1cccc(-c2n[nH]cc2-c2ccc3ncc(O)cc3n2)n1` [Compound 694, 6-[3-(6-methyl-2-pyridyl)-1H-pyrazol-4-yl]-1,5-naphthyridin-3-ol], the IC50 in assay [1] was less than 20 nM. Moreover, the Ki in assay [2] is 0.0398 to 0.316 nM.
Turning to `Cc1cccc(-c2n[nH]cc2-c2ccc3ncc(C4=CCC(N(C)C)CC4)cc3n2)n1` (centres unmarked) [Compound 685, N,N-dimethyl-4-[6-[3-(6-methyl-2-pyridyl)-1H-pyrazol-4-yl]-1,5-naphthyridin-3-yl]cyclohex-3-en-1-amine], in assay [1], the IC50 is 25.1 to 158 nM. Besides, the Ki in assay [2] was 0.0398 to 0.316 nM.
For `Cc1cccc(-c2n[nH]cc2-c2ccc3ncc(-c4cc(C(F)(F)F)n[nH]4)cc3n2)n1` [Compound 139, 2-[3-(6-methyl-2-pyridyl)-1H-pyrazol-4-yl]-7-[3-(trifluoromethyl)-1H-pyrazol-5-yl]-1,5-naphthyridine] the same measures were 25.1 to 158 nM and 0.0398 to 0.316 nM.
For `Cc1nc(-c2n[nH]cc2-c2ccc3ncc(-c4c(C)nn5c4NCCC5)cc3n2)ccc1F` [Compound 504, 2-[3-(5-fluoro-6-methyl-2-pyridyl)-1H-pyrazol-4-yl]-7-(2-methyl-4,5,6,7-tetrahydropyrazolo[1,5-a]pyrimidin-3-yl)-1,5-naphthyridine], in assay [1], the IC50 was 25.1 to 158 nM. Further, the Ki in assay [2] is 0.398 to 3.16 nM.
For `Cc1cccc(-c2[nH]ncc2-c2ccc3ncc(C(=O)OC4CCC5(CNC5)C4)cc3n2)n1` (centres unmarked) [Compound 62, 2-azaspiro[3.4]octan-6-yl 6-[5-(6-methyl-2-pyridyl)-1H-pyrazol-4-yl]-1,5-naphthyridine-3-carboxylate] the same measures were 200 to 1260 nM and 0.0398 to 0.316 nM.
On to `CNCCn1cc(-c2cnc3ccc(-c4c(-c5cccc(C)n5)nnn4CC(=O)O)nc3c2)cn1` [Compound 630, 2-[5-[7-[1-[2-(methylamino)ethyl]pyrazol-4-yl]-1,5-naphthyridin-2-yl]-4-(6-methyl-2-pyridyl)triazol-1-yl]acetic acid], for which the IC50 in assay [1] is 1580 to 10000 nM. For the same compound, the Ki in assay [2] was 0.398 to 3.16 nM.
With `Cc1cccc(-c2[nH]cnc2-c2ccc3ncc(C4=CCC(N)CC4)cc3c2)n1` (centres unmarked) [Compound 196, 4-[6-[5-(6-methyl-2-pyridyl)-1H-imidazol-4-yl]-3-quinolyl]cyclohex-3-en-1-amine], in assay [1], the IC50 is less than 20 nM. Further, the Ki in assay [2] is less than 0.0316 nM.
The like results for `Cc1cccc(-c2[nH]cnc2-c2ccc3ncc(C4=CCC(NCc5ccccc5)CC4)cc3n2)n1` (centres unmarked) [Compound 228, N-benzyl-4-[6-[5-(6-methyl-2-pyridyl)-1H-imidazol-4-yl]-1,5-naphthyridin-3-yl]cyclohex-3-en-1-amine] were, in that order, 200 to 1260 nM and 0.0398 to 0.316 nM.
With `Cc1cccc(-c2n[nH]cc2-c2ccc3ncc(C(=O)NCCCN4CCOCC4)cc3n2)n1` [Compound 109, 6-[3-(6-methyl-2-pyridyl)-1H-pyrazol-4-yl]-N-(3-morpholinopropyl)-1,5-naphthyridine-3-carboxamide], the IC50 in assay [1] was 25.1 to 158 nM. In addition, the Ki in assay [2] was 0.0398 to 0.316 nM.
Turning to `Cc1cccc(-c2[nH]cnc2-c2ccc3ncc(Nc4ccc(N5CCN(C(C)C)CC5)cn4)cc3c2)n1` [Compound 365, N-[5-(4-isopropylpiperazin-1-yl)-2-pyridyl]-6-[5-(6-methyl-2-pyridyl)-1H-imidazol-4-yl]quinolin-3-amine], the IC50 in assay [1] is 25.1 to 158 nM. In assay [2], the Ki is 0.0398 to 0.316 nM.
For `Cc1cccc(-c2nc3ncccn3c2-c2ccc3ncc(-c4cn[nH]c4)cc3n2)n1` [Compound 676, 2-(2-(6-methylpyridin-2-yl)imidazo[1,2-a]pyrimidin-3-yl)-7-(1H-pyrazol-4-yl)-1,5-naphthyridine] the same measures were 25.1 to 158 nM and 0.0398 to 0.316 nM.
The like results for `Cc1cccc(-c2[nH]ncc2-c2ccc3nccc(C(=O)O[C@H]4CC[C@@](C)(N)CC4)c3c2)n1` [Compound 1155, (4-amino-4-methyl-cyclohexyl) 6-[5-(6-methyl-2-pyridyl)-1H-pyrazol-4-yl]quinoline-4-carboxylate] were, in that order, 200 to 1260 nM and 3.98 to 31.6 nM.
The like results for `Cc1cccc(-c2[nH]cnc2-c2ccc3ncc(N4CCN[C@@H](C(=O)O)C4)cc3c2)n1` [Compound 168, (2R)-4-[6-[5-(6-methyl-2-pyridyl)-1H-imidazol-4-yl]-3-quinolyl]piperazine-2-carboxylic acid] were, in that order, 1580 to 10000 nM and 0.0398 to 0.316 nM.
Regarding `Cc1cccc(-c2n[nH]cc2-c2ccc3ncc(Nc4ccc(N5CCN(C)CC5)cn4)cc3c2)n1` [Compound 666, N-[5-(4-methylpiperazin-1-yl)-2-pyridyl]-6-[3-(6-methyl-2-pyridyl)-1H-pyrazol-4-yl]quinolin-3-amine], the IC50 in assay [1] is 25.1 to 158 nM. For the same compound, the Ki in assay [2] is 0.0398 to 0.316 nM.
The like results for `Cc1cccc(-c2[nH]ncc2-c2ccc3ncc(C(=O)O[C@H]4CCCNC4)cc3c2)n1` [Compound 1201, [(3S)-3-piperidyl] 6-[5-(6-methyl-2-pyridyl)-1H-pyrazol-4-yl]quinoline-3-carboxylate] were, in that order, 25.1 to 158 nM and 0.0398 to 0.316 nM.
The like results for `Cc1cccc(-c2[nH]cnc2-c2ccc3ncc(-c4cncc(CN5C[C@@H](C)N[C@@H](C)C5)c4)cc3c2)n1` [Compound 1106, 3-[5-[[(3S,5R)-3,5-dimethylpiperazin-1-yl]methyl]-3-pyridyl]-6-[5-(6-methyl-2-pyridyl)-1H-imidazol-4-yl]quinoline] were, in that order, 25.1 to 158 nM and 0.0398 to 0.316 nM.
For the compound `Cc1cccc(-c2n[nH]cc2-c2ccc3ncc(N4CCCN(C)C(C)C4)cc3n2)n1` (racemic) [Compound 19, 2-[3-(6-methyl-2-pyridyl)-1H-pyrazol-4-yl]-7-[rac-(3S)-3,4-dimethyl-1,4-diazepan-1-yl]-1,5-naphthyridine], the IC50 in assay [1] is 25.1 to 158 nM. Also, in assay [2], the Ki was 0.0398 to 0.316 nM.
For `FC(F)(F)c1cccc(-c2n[nH]cc2-c2ccc3ncc(N4CCCNCC4)cc3n2)n1` [Compound 383, 7-(1,4-diazepan-1-yl)-2-[3-[6-(trifluoromethyl)-2-pyridyl]-1H-pyrazol-4-yl]-1,5-naphthyridine] the same measures were 200 to 1260 nM and 0.398 to 3.16 nM.
For `Cc1cccc(-c2[nH]ncc2-c2ccc3ncc(C(=O)OC[C@H]4CCCNC4)cc3c2)n1` [Compound 1230, [(3S)-3-piperidyl]methyl 6-[5-(6-methyl-2-pyridyl)-1H-pyrazol-4-yl]quinoline-3-carboxylate] the same measures were 25.1 to 158 nM and 0.0398 to 0.316 nM.
The like results for `Cc1nc(-c2n[nH]cc2-c2ccc3ncc(-c4ncc5n4CCNC5)cc3n2)ccc1F` [Compound 39, 2-[3-(5-fluoro-6-methyl-2-pyridyl)-1H-pyrazol-4-yl]-7-(5,6,7,8-tetrahydroimidazo[1,5-a]pyrazin-3-yl)-1,5-naphthyridine] were, in that order, 200 to 1260 nM and 0.398 to 3.16 nM.
On to `Cc1cccc(-c2[nH]cnc2-c2ccc3ncc(-c4csc(C(=O)OCC5CNC5)n4)cc3c2)n1` [Compound 1148, azetidin-3-ylmethyl 4-[6-[5-(6-methyl-2-pyridyl)-1H-imidazol-4-yl]-3-quinolyl]thiazole-2-carboxylate], for which the IC50 in assay [1] is 25.1 to 158 nM. In assay [2], the Ki is 0.0398 to 0.316 nM.

Source of the values: patent publication US11590116B2 (THERAVANCE BIOPHARMA R&D IP, LLC, priority 2019, dated 2023).
